Counter-ions that a name gives are not always drawn.
Experiments:
[1] = Stability analysis of raw API (3 months, open & closed Petri dish) by stability indicating HPLC method and titration method; assay type: physicochemical; settings: for Sodium Fusidate Assay(%) HPLC / Sodium Fusidate Assay(%) Titration / Percentage (%) HPLC / Percentage (%) Titration / Fusidic Acid Assay (%) HPLC / Fusidic Acid Assay (%) Titration / Percentage Drop (%) HPLC / Percentage Drop (%) Titration: after 3 months; for Percentage (%) HPLC / Percentage (%) Titration: Sodium Fusidate API; for Percentage Drop (%) HPLC / Percentage Drop (%) Titration: Fusidic acid API
[2] = 20° C.; cited from earlier work
bacterial cells = settings: in vitro; cited from earlier work
gram-negative bacteria = settings: cited from earlier work
Staphylococcus aureus = test: In vitro antimicrobial zone of inhibition study; assay type: cell-based
Excerpt: The antimicrobial/antibacterial activity of the product is confirmed by the in vitro Antimicrobial Zone of Inhibition studies for the product against Staphylococcusaureus. The details of the studies are detailed below in Table 16.

[3] = at the time of receipt of the API from the supplier

CC(=O)O[C@H]1C[C@@]2(C)[C@@H](C[C@@H](O)[C@H]3[C@@]4(C)CC[C@@H](O)[C@@H](C)[C@@H]4CC[C@@]32C)/C1=C(\CCC=C(C)C)C(=O)O [Sodium Fusidate, 3μ,11μ,16β-Trihydroxy 29-nor-8μ, 9β, 13μ, 14β-dammara-17(20) [10,21-cis], 24-dien-21-oic acid 16-acetate, sodium salt]
Sodium Fusidate Assay(%) HPLC ([1]; 45° C. (Closed)): 92.96% | Sodium Fusidate Assay(%) Titration ([1]; 45° C. (Closed)): 97.16% | Sodium Fusidate Assay(%) HPLC ([1]; 45° C. (Open)): 92.65% | Sodium Fusidate Assay(%) Titration ([1]; 45° C. (Open)): 97.07% | loss in 3 Months ([1]; 45° C. (open condition), sodium salt): about 6% | Sodium Fusidate Assay(%) HPLC ([1]; RT (Closed)): 97.67% | Sodium Fusidate Assay(%) Titration ([1]; RT (Closed)): 98.85% | Sodium Fusidate Assay(%) HPLC ([1]; RT (Open)): 96.25% | Sodium Fusidate Assay(%) Titration ([1]; RT (Open)): 97.71% | Percentage (%) HPLC ([1]; 45° C. (Closed)): 5.74% | Percentage (%) Titration ([1]; 45° C. (Closed)): 1.54% | Percentage (%) HPLC ([1]; 45° C. (Open)): 6.05% | Percentage (%) Titration ([1]; 45° C. (Open)): 1.63% | Percentage (%) HPLC ([1]; RT (Closed)): 1.03% | Percentage (%) Titration ([1]; RT (Closed)): −0.15% | Percentage (%) HPLC ([1]; RT (Open)): 2.45% | Percentage (%) Titration ([1]; RT (Open)): 0.99% | stability as an API compared with Fusidic acid ([1]; Tables 1 and 2): more stable than Fusidic acid | Sodium Fusidate Initial (%) [1, 3]: 98.7% | loss in 3 Months ([1]; room temperature (open condition), sodium salt): about 2.5% | solubility in water [2]: soluble in one part of water | time DNA synthesis continues after contact (bacterial cells): 45 min | time until bacterial cells stop dividing after contact with the antibiotic (bacterial cells): ≤ 2 min | activity against gram-negative bacteria (gram-negative bacteria): virtually inactive

CC(=O)O[C@H]1C[C@@]2(C)[C@@H](C[C@@H](O)[C@H]3[C@@]4(C)CC[C@@H](O)[C@@H](C)[C@@H]4CC[C@@]32C)/C1=C(\CCC=C(C)C)C(=O)O [Fusidic Acid, Fusidic acid]
Fusidic Acid Assay (%) HPLC ([1]; 45° C. (Closed)): 92.12% | Fusidic Acid Assay (%) Titration ([1]; 45° C. (Closed)): 99.10% | Fusidic Acid Assay (%) HPLC ([1]; 45° C. (Open)): 89.52% | Fusidic Acid Assay (%) Titration ([1]; 45° C. (Open)): 98.52% | loss in 3 Months ([1]; 45° C. (open condition)): about 11% | Percentage Drop (%) HPLC ([1]; 45° C. (Closed)): 8.48% | Percentage Drop (%) Titration ([1]; 45° C. (Closed)): 1.50% | Percentage Drop (%) HPLC ([1]; 45° C. (Open)): 11.08% | Percentage Drop (%) Titration ([1]; 45° C. (Open)): 2.08% | Percentage Drop (%) HPLC ([1]; RT (Closed)): 6.23% | Percentage Drop (%) Titration ([1]; RT (Closed)): 1.58% | Percentage Drop (%) HPLC ([1]; RT (Open)): 7.67% | Percentage Drop (%) Titration ([1]; RT (Open)): 1.39% | Fusidic Acid Assay (%) HPLC ([1]; RT (Closed)): 94.37% | Fusidic Acid Assay (%) Titration ([1]; RT (Closed)): 99.02% | Fusidic Acid Assay (%) HPLC ([1]; RT (Open)): 92.93% | Fusidic Acid Assay (%) Titration ([1]; RT (Open)): 99.21% | Fusidic Acid Initial (%) [1, 3]: 100.6% | loss in 3 Months ([1]; room temperature (open condition)): about 7.7% | Inference (Staphylococcus aureus; Dose 10 mcg): Sensitive | Zone Diameter Range (mm) (Staphylococcus aureus; Dose 10 mcg): 21-33 mm | Inference (Staphylococcus aureus; Dose 20 mcg): Sensitive | Zone Diameter Range (mm) (Staphylococcus aureus; Dose 20 mcg): 20-30 mm | Inference (Staphylococcus aureus; Dose 50 mcg): Sensitive | Zone Diameter Range (mm) (Staphylococcus aureus; Dose 50 mcg): 25-32 mm

CC1(C)S[C@@H]2[C@H](NC(=O)Cc3ccccc3)C(=O)N2[C@H]1C(=O)O [Penicillin G]
Inference (Staphylococcus aureus; Dose 10 Units): Resistant | Zone Diameter Range (mm) (Staphylococcus aureus; Dose 10 Units): 21-27 mm

— patent US20120040946A1 (APEX LABORATORIES PRIVATE LIMITED, priority 2009, published 2012)
